Drawing on patent US8796256B2 (Janssen Pharmaceutica NV, priority 2010, dated 2014), this text covers EC50 for 24 compounds.

The target in the test is T1, ERR1 (also known as ERR-α or ERR-1) (Homo sapiens, UniProt P11474).
T1 sequence (P11474 193-421 limits assumed): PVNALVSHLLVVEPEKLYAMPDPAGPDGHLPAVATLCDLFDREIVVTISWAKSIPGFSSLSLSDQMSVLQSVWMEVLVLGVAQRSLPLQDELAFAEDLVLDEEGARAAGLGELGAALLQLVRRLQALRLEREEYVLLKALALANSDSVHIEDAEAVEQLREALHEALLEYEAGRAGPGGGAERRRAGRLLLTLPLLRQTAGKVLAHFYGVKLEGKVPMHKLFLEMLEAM
The test is described as follows: TR-FRET assay (disruption of co-activator peptide binding to ERR1 LBD). The test is classed as biochemical. To be noted: 6 nM 6His-ERR1LBD, 6 nM GST-SRC-2 peptide; average of 3 independent experiments. The method in brief: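 His-tagged ERR1 ligand-binding domain and GST-labelled SRC-2 peptide, each 6 nM, equilibrated at 25° C for 4-18 h in Tris pH 8/Hepes/KCl/DTT/delipidated BSA buffer. Compound-induced loss of co-activator binding read as Eu cryptate→XL665 energy transfer; values from hyperbolic curve fits averaged over 3 independent runs.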
(In general: TR-FRET usually uses a lanthanide donor and a delayed reading to cut background.)
One may read the EC50 as the concentration that produces a half-maximal response. Higher therefore signals lower potency in that assay. With `O=C1S/C(=C\c2ccc3c(cnn3Cc3ccc(C(F)(F)F)cc3C(F)(F)F)c2)C(=O)N1C1CN2CCC1CC2` (stereo not drawn) [Compound 63, (5Z)-3-(1-Azabicyclo[2.2.2]oct-3-yl)-5-({1-[2,4-bis(trifluoromethyl)benzyl]-1H-indazol-5-yl}methylidene)-1,3-thiazolidine-2,4-dione], the EC50 amounted to 0.02 µM.
`COc1ccc(Cn2ncc3cc(/C=C4\SC(=O)N(CCN5CCN(C)CC5)C4=O)ccc32)c(C(F)(F)F)c1` [Compound 12, (5Z)-5-[(1-{[4-(Methyloxy)-2-(trifluoromethyl)phenyl]methyl}-1H-indazol-5-yl)methylidene]-3-[2-(4-methylpiperazin-1-yl)ethyl]-1,3-thiazolidine-2,4-dione] returned an EC50 of 0.072 µM.
In the case of `CN(CCO)CCN1C(=O)S/C(=C\c2ccc3c(cnn3Cc3ccc(Cl)cc3C(F)(F)F)c2)C1=O` [Compound 51, (5Z)-5-({1-[4-Chloro-2-(trifluoromethyl)benzyl]-1H-indazol-5-yl}methylidene)-3-{2-[(2-hydroxyethyl)(methyl)amino]ethyl}-1,3-thiazolidine-2,4-dione] it was 0.026 µM; in that of `O=C(O)C1CCC(N2C(=O)S/C(=C\c3ccc4c(c3)c(Cl)nn4Cc3ccc(Cl)cc3C(F)(F)F)C2=O)CC1` (stereo not drawn) [Compound 302, 4-[(5Z)-5-({3-Chloro-1-[4-chloro-2-(trifluoromethyl)benzyl]-1H-indazol-5-yl}methylidene)-2,4-dioxo-1,3-thiazolidin-3-yl] cyclohexanecarboxylic acid], 0.002 µM.
In the case of `CN1CC[C@@H](N2C(=O)S/C(=C\c3ccc4c(cnn4Cc4ccc(Cl)cc4C(F)(F)F)c3)C2=O)[C@H](O)C1` (relative stereo) [Compound 275, (5Z)-5-({1-[4-Chloro-2-(trifluoromethyl)-benzyl]-1H-indazol-5-yl}methylidene)-3-[trans-3-hydroxy-1-methylpiperidin-4-yl]-1,3-thiazolidine-2,4-dione] it was 0.023 µM; in that of `NC1CCCC(N2C(=O)S/C(=C\c3ccc4c(cnn4Cc4ccc(Cl)cc4C(F)(F)F)c3)C2=O)C1` (stereo not drawn) [Compound 76, (5Z)-3-(3-Aminocyclohexyl)-5-({1-[4-chloro-2-(trifluoromethyl)benzyl]-1H-indazol-5-yl}methylidene)-1,3-thiazolidine-2,4-dione], 0.014 µM.
With `Cn1cncc1CN1C(=O)S/C(=C\c2ccc3c(cnn3Cc3ccc(Cl)cc3C(F)(F)F)c2)C1=O` [Compound 139, (5Z)-5-({1-[4-Chloro-2-(trifluoromethyl)benzyl]-1H-indazol-5-yl}methylidene)-3-[(1-methyl-1H-imidazol-5-yl)methyl]-1,3-thiazolidine-2,4-dione] the figure was 0.016 µM.
For the compound `O=C1S/C(=C\c2ccc3c(cnn3Cc3ccc(Cl)cc3C(F)(F)F)c2)C(=O)N1[C@@H]1CCN[C@@H](CO)C1` (relative stereo) [Compound 269, (5Z)-5-({1-[4-Chloro-2-(trifluoromethyl)benzyl]-1H-indazol-5-yl}methylidene)-3-[trans-2-(hydroxymethyl)piperidin-4-yl]-1,3-thiazolidine-2,4-dione], a half-maximal response (EC50) required 0.067 µM.
With `O=C1S/C(=C\c2ccc3c(cnn3Cc3ccc(Cl)cc3C(F)(F)F)c2)C(=O)N1[C@@H]1CNC[C@H]1O` (relative stereo) [Compound 316, (5Z)-5-({1-[4-Chloro-2-(trifluoromethyl)benzyl]-1H-indazol-5-yl}methylidene)-3-[trans-4-hydroxypyrrolidin-3-yl]-1,3-thiazolidine-2,4-dione] the figure was 0.036 µM; with `O=C1S/C(=C\c2ccc3c(cnn3Cc3ccc(F)cc3C(F)(F)F)c2)C(=O)N1[C@@H]1CNCC[C@H]1O` (relative stereo) [Compound 281, (5Z)-5-({1-[4-Fluoro-2-(trifluoromethyl)-benzyl]-1H-indazol-5-yl}methylidene)-3-[trans-4-hydroxypiperidin-3-yl]-1,3-thiazolidine-2,4-dione], 0.17 µM.
With `O=C1S/C(=C\c2ccc3c(cnn3Cc3ccc(Cl)cc3C(F)(F)F)c2)C(=O)N1C[C@H](O)CNCCF` [Compound 295, (5Z)-5-({1-[4-Chloro-2-(trifluoromethyl)benzyl]-1H-indazol-5-yl}methylidene)-3-{(2R)-3-[(2-fluoroethyl)amino]-2-hydroxypropyl}-1,3-thiazolidine-2,4-dione] the figure was 0.066 µM; with `O=C1S/C(=C\c2ccc3c(cnn3Cc3ccc(Cl)cc3C(F)(F)F)c2)C(=O)N1CC1CCNCC1` [Compound 130, (5Z)-5-({1-[4-Chloro-2-(trifluoromethyl)benzyl]-1H-indazol-5-yl}methylidene)-3-(piperidin-4-ylmethyl)-1,3-thiazolidine-2,4-dione], 0.033 µM; with `O=C1S/C(=C\c2ccc3c(cnn3Cc3ccc(Cl)cc3C(F)(F)F)c2)C(=O)N1C1(C(=O)O)CCCC1` [Compound 233, 1-[(5Z)-5-({1-[4-Chloro-2-(trifluoromethyl)benzyl]-1H-indazol-5-yl}methylidene)-2,4-dioxo-1,3-thiazolidin-3-yl]cyclopentanecarboxylic acid], 0.057 µM.
In the case of `COC(=O)C1(N2C(=O)S/C(=C\c3ccc4c(cnn4Cc4ccc(Cl)cc4C(F)(F)F)c3)C2=O)CCC1` [Compound 234, Methyl 1-[(5Z)-5-({1-[4-chloro-2-(trifluoromethyl)benzyl]-1H-indazol-5-yl}methylidene)-2,4-dioxo-1,3-thiazolidin-3-yl]cyclobutanecarboxylate] it was 0.099 µM.
`CC(C)N1C[C@@H](F)[C@H](N2C(=O)S/C(=C\c3ccc4c(cnn4Cc4ccc(Cl)cc4C(F)(F)F)c3)C2=O)C1` (relative stereo) [Compound 321, (5Z)-5-({1-[4-Chloro-2-(trifluoromethyl)benzyl]-1H-indazol-5-yl}methylidene)-3-[trans-4-fluoro-1-(1-methylethyl)pyrrolidin-3-yl]-1,3-thiazolidine-2,4-dione]: a half-maximal effect (EC50) was put at 0.043 µM.
As for `CCN1CCC(N2C(=O)S/C(=C\c3ccc4c(cnn4Cc4ccc(OC)cc4C(F)(F)F)c3)C2=O)CC1` [Compound 28, (5Z)-3-(1-Ethylpiperidin-4-yl)-5-({1-[4-methoxy-2-(trifluoromethyl)benzyl]-1H-indazol-5-yl}methylidene)-1,3-thiazolidine-2,4-dione], the concentration for a half-maximal effect (EC50) worked out at 0.014 µM.
As to `O=C1S/C(=C\c2ccc3c(cnn3Cc3ccc(Cl)cc3C(F)(F)F)c2)C(=O)N1CCc1cccnc1` [Compound 109, (5Z)-5-({1-[4-Chloro-2-(trifluoromethyl)benzyl]-1H-indazol-5-yl}methylidene)-3-(2-pyridin-3-ylethyl)-1,3-thiazolidine-2,4-dione], the EC50 was 0.152 µM.
`COCCN1C[C@H](O)C[C@H]1CN1C(=O)S/C(=C\c2ccc3c(cnn3Cc3ccc(Cl)cc3C(F)(F)F)c2)C1=O` [Compound 188, (5Z)-5-({1-[4-Chloro-2-(trifluoromethyl)benzyl]-1H-indazol-5-yl}methylidene)-3-{[(2S,4R)-4-hydroxy-1-(2-methoxyethyl)pyrrolidin-2-yl]methyl}-1,3-thiazolidine-2,4-dione] had an EC50 of 0.06 µM.
With `O=C1S/C(=C\c2ccc3c(cnn3Cc3ccc(Cl)cc3C(F)(F)F)c2)C(=O)N1C1CCNCC1` [Compound 113, (5Z)-5-({1-[4-Chloro-2-(trifluoromethyl)benzyl]-1H-indazol-5-yl}methylidene)-3-piperidin-4-yl-1,3-thiazolidine-2,4-dione] the figure was 0.016 µM.
In the case of `O=C1S/C(=C\c2ccc3c(cnn3Cc3ccc(Cl)cc3C(F)(F)F)c2)C(=O)N1CC(O)C1CCNCC1` (stereo not drawn) [Compound 285, (5Z)-5-({1-[4-Chloro-2-(trifluoromethyl)benzyl]-1H-indazol-5-yl}methylidene)-3-(2-hydroxy-2-piperidin-4-ylethyl)-1,3-thiazolidine-2,4-dione] it was 0.038 µM; in that of `O=C1S/C(=C\c2ccc3c(cnn3Cc3ccc(Cl)cc3C(F)(F)F)c2)C(=O)N1C[C@@H]1CCCN1CCO` [Compound 153, (5Z)-5-({1-[4-Chloro-2-(trifluoromethyl)benzyl]-1H-indazol-5-yl}methylidene)-3-{[(2S)-1-(2-hydroxyethyl)pyrrolidin-2-yl]methyl}-1,3-thiazolidine-2,4-dione], 0.017 µM.
With `O=C1S/C(=C\c2ccc3c(c2)nnn3Cc2ccc(Cl)cc2C(F)(F)F)C(=O)N1Cc1nc[nH]n1` [Compound 264, (5Z)-5-({1-[4-Chloro-2-(trifluoromethyl)benzyl]-1H-benzotriazol-5-yl}methylidene)-3-(1H-1,2,4-triazol-3-ylmethyl)-1,3-thiazolidine-2,4-dione] the figure was 0.016 µM; with `O=C1S/C(=C\c2ccc3c(cnn3Cc3ccc(Cl)cc3C(F)(F)F)c2)C(=O)N1CCNS(=O)(=O)N1CCOCC1` [Compound 398, N-{2-[(5Z)-5-({1-[4-Chloro-2-(trifluoromethyl)benzyl]-1H-indazol-5-yl}methylidene)-2,4-dioxo-1,3-thiazolidin-3-yl]ethyl}morpholine-4-sulfonamide], 0.01 µM.
With `N[C@@H](CN1C(=O)S/C(=C\c2ccc3c(cnn3Cc3ccc(Cl)cc3C(F)(F)F)c2)C1=O)C1CCCCC1` [Compound 107, (5Z)-3-[(2R)-2-Amino-2-cyclohexylethyl]-5-({1-[4-chloro-2-(trifluoromethyl)benzyl]-1H-indazol-5-yl}methylidene)-1,3-thiazolidine-2,4-dione], a half-maximal response (EC50) required 0.264 µM.
